Source: US12173018B2, “Penicillin-binding protein inhibitors” (priority 2018, dated 2024)
Converted amounts (≈) assume the structure as drawn. Where two headings read alike, the source gives them in different places.

Assays:
[1] = tested on: N. gonorrhoeae ATCC 49226; experiment: Liquid broth MIC, N. gonorrhoeae ATCC 49226; format: cell-based; details: Neisseria gonorrhoeae, ATCC49226; N. gonorrhoeae ATCC 49226, liquid broth; read-out: Minimum Inhibitory Concentration, N. gonorrhoeae ATCC 49226
Summary of the method: (§1)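 Broth microdilution in wild-type strains: colonies from GC agar with 1% Kellogg's supplement suspended in GC broth, inoculated at 5×10^5 CFU/mL into 2-fold compound dilutions. Plates incubated 40-42 hours at 36° C., 5% CO2; MIC read visually as lowest concentration with no growth.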

N. gonorrhoeae FA1090 = experiment: Liquid broth MIC, N. gonorrhoeae FA1090; format: cell-based; details: Neisseria gonorrhoeae; N. gonorrhoeae FA1090, liquid broth; read-out: Minimum Inhibitory Concentration, N. gonorrhoeae FA1090
Summary of the method: as §1

E. coli AG100 = experiment: Broth microdilution MIC, E. coli AG100 (wild-type parent); format: cell-based; details: Escherichia coli; wild-type parent E. coli AG100, broth microdilution; read-out: MIC E. coli AG100
Summary of the method: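 Starting inoculum of 5×10^5 CFU/mL, from colonies grown 3-5 h in Mueller-Hinton broth with divalent cations, added to two-fold compound dilution series.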

N. gonorrhoeae FA19 = experiment: Liquid broth MIC, N. gonorrhoeae FA19; format: cell-based; details: Neisseria gonorrhoeae; N. gonorrhoeae FA19, liquid broth; read-out: Minimum Inhibitory Concentration, N. gonorrhoeae FA19
Summary of the method: as §1

K. pneumoniae 848844 = experiment: microbe, parasite or virus in culture; format: cell-based, Klebsiella pneumoniae
Summary of the method: (§2)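 Broth microdilution MICs followed CLSI methods in cation-supplemented Mueller-Hinton broth, with 2-fold serial compound dilutions. Log-phase cultures grown 3–5 h were added to a starting inoculum of 5×10^5 CFU/mL and incubated 16–20 h at 37 °C. The MIC was read visually as the lowest concentration with no growth.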

E. coli ATCC 25922 = experiment: Broth microdilution MIC, E. coli ATCC 25922; format: cell-based; details: Escherichia coli, ATCC25922; E. coli ATCC 25922, broth microdilution; read-out: MIC E. coli 25922
Summary of the method: as §2

N. gonorrhoeae WHO F = experiment: Liquid broth MIC, N. gonorrhoeae WHO F; format: cell-based; details: Neisseria gonorrhoeae; N. gonorrhoeae WHO F, liquid broth; read-out: Minimum Inhibitory Concentration, N. gonorrhoeae WHO F
Summary of the method: as §1

K. pneumoniae UMM = experiment: microbe, parasite or virus in culture; format: cell-based; details: Klebsiella pneumoniae, read-out: MIC K. pneumoniae UMM
Summary of the method: as §2

E. coli AG100A = experiment: microbe, parasite or virus in culture; format: cell-based; details: Escherichia coli, read-out: MIC E. coli AG100A
Summary of the method: as §2

K. pneumoniae SI-117 = experiment: microbe, parasite or virus in culture; format: cell-based; details: Klebsiella pneumoniae, SI117, read-out: MIC K. pneumoniae SI-117
Summary of the method: as §2

E. coli D22 = experiment: microbe, parasite or virus in culture; format: cell-based; details: Escherichia coli
Summary of the method: as §2

E. coli 901C = experiment: microbe, parasite or virus in culture; format: cell-based; details: Escherichia coli, read-out: MIC E. coli 901C
Summary of the method: as §2

[2] = Klebsiella pneumoniae, K. pneumoniae 848844 producing SHV-11 and KPC-2, read-out: MIC K. pneumoniae 848844
[3] = K. pneumoniae UMM producing SHV-5 and KPC-2
[4] = hyper-permeable E. coli D22, broth microdilution, read-out: MIC E. coli D22
[5] = hyper-permeable E. coli 901C, broth microdilution

Row | SMILES | MIC [1] [µg/mL] | MIC (N. gonorrhoeae FA1090) [µg/mL] | MIC (E. coli AG100) [µg/mL] | MIC (N. gonorrhoeae FA19) [µg/mL] | MIC (K. pneumoniae 848844; [2]) [µg/mL] | MIC (E. coli ATCC 25922) [µg/mL] | MIC (N. gonorrhoeae WHO F) [µg/mL] | MIC (K. pneumoniae UMM; [3]) [µg/mL] | MIC (E. coli AG100A) [µg/mL] | MIC (K. pneumoniae SI-117) [µg/mL] | MIC (E. coli D22; [4]) [µg/mL] | MIC (E. coli 901C; [5]) [µg/mL] | MIC (K. pneumoniae 848844; Klebsiella pneumoniae, 848844, read-out: MIC K. pneumoniae 848844) [µg/mL] | MIC (K. pneumoniae UMM) [µg/mL] | MIC (E. coli D22; D22, read-out: MIC E. coli D22) [µg/mL] | MIC (E. coli 901C; 901C) [µg/mL]
1 | CCN1C[C@H](CO)N(C(=O)NC(C(=O)N[C@H]2Cc3ccc(F)c(C(=O)O)c3OB2O)c2ccc(O)c(O)c2Cl)C(=O)C1=O (stereo partly drawn) [Example 237, (3R)-3-(2-(2-chloro-3,4-dihydroxyphenyl)-2-((R)-4-ethyl-6-(hydroxymethyl)-2,3-dioxopiperazine-1-carboxamido)acetamido)-7-fluoro-2-hydroxy-3,4-dihydro-2H-benzo[e][1,2]oxaborinine-8-carboxylic acid] | 4 to 8 (≈ 6.42 to 12.8 µM) | 1 to 2 (≈ 1.61 to 3.21 µM) | 0.5 to 1 | 4 to 8 (≈ 6.42 to 12.8 µM) | 2 to 4 | 2 to 4 | 0.25 to 0.5 (≈ 0.401 to 0.803 µM) | 2 to 4 | < 0.25 | 2 to 4 | < 0.25 | < 0.25 |  |  |  | 
2 | CCN1C[C@H](CCN)N(C(=O)NC(C(=O)N[C@H]2Cc3ccc(F)c(C(=O)O)c3OB2O)c2ccc(O)c(O)c2Cl)C(=O)C1=O (stereo partly drawn) [Example 238, (3R)-3-(2-((S)-6-(2-aminoethyl)-4-ethyl-2,3-dioxopiperazine-1-carboxamido)-2-(2-chloro-3,4-dihydroxyphenyl)acetamido)-7-fluoro-2-hydroxy-3,4-dihydro-2H-benzo[e][1,2]oxaborinine-8-carboxylic acid] | > 64 | 4 to 8 (≈ 6.29 to 12.6 µM) | 2 to 4 | > 64 |  | 32 to 64 | 4 to 8 (≈ 6.29 to 12.6 µM) |  | 2 to 4 | 8 to 16 |  |  | 8 to 16 | 8 to 16 | 8 to 16 | 2 to 4
3 | CNCCN1CCN(C(=O)NC(C(=O)N[C@H]2Cc3cccc(C(=O)O)c3OB2O)c2ccc(O)c(O)c2Cl)C(=O)C1=O (stereo partly drawn) [Example 239, (3R)-3-(2-(2-chloro-3,4-dihydroxyphenyl)-2-(4-(2-(methylamino)ethyl)-2,3-dioxopiperazine-1-carboxamido)acetamido)-2-hydroxy-3,4-dihydro-2H-benzo[e][1,2]oxaborinine-8-carboxylic acid] | > 64 | 4 to 8 (≈ 6.62 to 13.2 µM) | 2 to 4 | > 64 | 2 to 4 | 32 to 64 | 4 to 8 (≈ 6.62 to 13.2 µM) | 2 to 4 | 2 to 4 | > 128 | 2 to 4 | 2 to 4 |  |  |  | 
